Like-named read-outs stand apart in the source and are kept apart here.
Experiments:
[1] = target: Epidermal Growth Factor Receptor (EGFR) (Homo sapiens (Human), UniProt P00533); assay: EGFR kinase assay (TR-FRET); format: biochemical; conditions: read-out: EGFR kinase inhibition IC50
Summary of the method: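 EGFR purified from A431 cells was preincubated with compound 15 min at 22° C in pH 7.0 Hepes buffer with MgCl2, MnCl2 and vanadate before reaction with a biotinylated peptide. After EDTA stop, phosphopeptide was detected by TR-FRET (anti-phosphotyrosine Tb-cryptate, streptavidin-XL665) as the 665/620 nm emission ratio.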

[2] = target: human SOS1 (loading of human K-Ras^G12C-GDP with fluorescent GTP-analog) (Homo sapiens, UniProt Q07889); assay: Biochemical assay 3: K-Ras^G12C activation assay by hSOS1 (HTRF); conditions: no GTP; for IC50: read-out: Assay 3 (KRAS-Activation by SOS no GTP) activity expressed as IC50; for inhibition at 20 µM: read-out: Assay 3 (KRAS-Activation by SOS no GTP) activity expressed as % inhibition at 20 μM

Epidermal Growth Factor Receptor (EGFR), sequence (P00533 25-1210): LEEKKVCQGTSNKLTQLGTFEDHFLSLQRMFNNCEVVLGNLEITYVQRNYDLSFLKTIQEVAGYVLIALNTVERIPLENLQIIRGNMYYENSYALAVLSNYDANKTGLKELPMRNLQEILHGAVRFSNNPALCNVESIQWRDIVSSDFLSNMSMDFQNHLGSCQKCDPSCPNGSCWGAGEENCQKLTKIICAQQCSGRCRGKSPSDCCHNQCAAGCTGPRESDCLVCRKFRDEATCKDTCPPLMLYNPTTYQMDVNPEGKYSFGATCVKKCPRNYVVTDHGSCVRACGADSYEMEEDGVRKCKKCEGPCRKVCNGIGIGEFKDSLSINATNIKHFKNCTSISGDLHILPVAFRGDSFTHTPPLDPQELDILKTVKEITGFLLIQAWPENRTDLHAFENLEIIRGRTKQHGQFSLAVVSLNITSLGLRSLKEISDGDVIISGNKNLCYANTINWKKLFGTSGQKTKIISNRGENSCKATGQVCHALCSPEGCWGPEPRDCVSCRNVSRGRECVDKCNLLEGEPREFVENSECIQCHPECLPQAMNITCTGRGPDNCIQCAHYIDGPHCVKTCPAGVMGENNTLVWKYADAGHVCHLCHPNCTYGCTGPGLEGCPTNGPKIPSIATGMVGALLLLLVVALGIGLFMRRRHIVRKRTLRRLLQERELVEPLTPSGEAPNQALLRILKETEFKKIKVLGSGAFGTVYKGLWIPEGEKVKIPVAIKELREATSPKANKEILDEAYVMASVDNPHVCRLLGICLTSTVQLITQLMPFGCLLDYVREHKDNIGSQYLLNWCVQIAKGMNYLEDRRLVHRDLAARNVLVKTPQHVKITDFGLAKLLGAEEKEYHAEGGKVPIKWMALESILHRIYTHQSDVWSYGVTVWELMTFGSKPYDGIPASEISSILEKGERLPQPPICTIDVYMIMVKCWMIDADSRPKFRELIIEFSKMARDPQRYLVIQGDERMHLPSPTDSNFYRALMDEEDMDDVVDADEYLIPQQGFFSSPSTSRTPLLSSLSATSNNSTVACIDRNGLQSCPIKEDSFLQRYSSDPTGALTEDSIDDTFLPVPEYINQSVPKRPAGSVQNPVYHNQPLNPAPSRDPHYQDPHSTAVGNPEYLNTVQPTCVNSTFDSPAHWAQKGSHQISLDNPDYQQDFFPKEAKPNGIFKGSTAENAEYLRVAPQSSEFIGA

SMILES	IC50 ([1]; values given in μM)	IC50 [2]	inhibition at 20 µM [2]	IC50 ([1]; unit inferred)
COc1cc2nc(C)nc(N[C@H](C)c3cccc(Br)c3)c2cc1OC [Example 191, N-[(1R)-1-(3-bromophenyl)ethyl]-6,7-dimethoxy-2-methylquinazolin-4-amine]	> 20 µM	0.382 µM		
COc1cc2nc(C)nc(N[C@H](C)c3ccc(C(N)=O)cc3)c2cc1OC [Example 192, 4-{(1R)-1-[(6,7-dimethoxy-2-methylquinazolin-4-yl)amino]ethyl}benzamide]	> 20 µM	14.2 µM		
COc1cc2nc(C)nc(N[C@H](C)c3cccc(-c4ccccc4)c3)c2cc1OC [Example 193, N-[(1R)-1-(biphenyl-3-yl)ethyl]-6,7-dimethoxy-2-methylquinazolin-4-amine]	> 20 µM	0.82 µM		
COc1cc2nc(C)nc(N[C@H](C)c3cccc(C#N)c3)c2cc1OC [Example 194, 3-{(1R)-1-[(6,7-dimethoxy-2-methylquinazolin-4-yl)amino]ethyl}benzonitrile]	> 20 µM	2.43 µM		
COc1cc2nc(C)nc(N[C@H](C)c3ccc(C)cc3)c2cc1OC [Example 195, 6,7-dimethoxy-2-methyl-N-[(1R)-1-(4-methylphenyl)ethyl]quinazolin-4-amine]	> 20 µM	0.749 µM		
COc1cc2nc(C)nc(N[C@H](C)c3ccc(-c4ccccc4)cc3)c2cc1OC [Example 196, N-[(1R)-1-(biphenyl-4-yl)ethyl]-6,7-dimethoxy-2-methylquinazolin-4-amine]	> 20 µM	6.1 µM		
COc1cc2nc(C)nc(N[C@H](C)c3ccc(C4CC4)cc3)c2cc1OC [Example 197, N-[(1R)-1-(4-cyclopropylphenyl)ethyl]-6,7-dimethoxy-2-methylquinazolin-4-amine]	> 20 µM	0.638 µM		
COc1cc2nc(C)nc(N[C@H](C)c3cccc(S(C)(=O)=O)c3)c2cc1OC [Example 198, 6,7-dimethoxy-2-methyl-N-{(1R)-1-[3-(methylsulfonyl)phenyl]ethyl}quinazolin-4-amine]	> 20 µM	1.09 µM		
COc1cc2nc(C)nc(N[C@H](C)c3cccc(C(N)=O)c3)c2cc1OC [Example 199, 3-{(1R)-1-[(6,7-dimethoxy-2-methylquinazolin-4-yl)amino]ethyl}benzamide]	> 20 µM	6.7 µM		
COc1cc2nc(C)nc(N[C@H](C)c3ccc(C4=CCN(C)CC4)cc3)c2cc1OC [Example 201, 6,7-dimethoxy-2-methyl-N-{(1R)-1-[4-(1-methyl-1,2,3,6-tetrahydropyridin-4-yl)phenyl]ethyl}quinazolin-4-amine]	> 20 µM		50%	
COc1cc2nc(C)nc(N[C@H](C)c3cccc(C4=CCN(C)CC4)c3)c2cc1OC [Example 202, 6,7-dimethoxy-2-methyl-N-{(1R)-1-[3-(1-methyl-1,2,3,6-tetrahydropyridin-4-yl)phenyl]ethyl}quinazolin-4-amine]	> 20 µM	5.32 µM		
C=C(C)c1ccc([C@@H](C)Nc2nc(C)nc3cc(OC)c(OC)cc23)cc1 [Example 203, 6,7-dimethoxy-2-methyl-N-{(1R)-1-[4-(prop-1-en-2-yl)phenyl]ethyl}quinazolin-4-amine]	> 20 µM	3.36 µM		
COc1cc2nc(C)nc(N[C@H](C)c3cccc(C4CC4)c3)c2cc1OC [Example 204, N-[(1R)-1-(3-cyclopropylphenyl)ethyl]-6,7-dimethoxy-2-methylquinazolin-4-amine]	> 20 µM	0.64 µM		
COc1cc2nc(C)nc(NC(C)c3cccc4sccc34)c2cc1OC (stereo not drawn) [Example 205, N-[1-(1-benzothiophen-4-yl)ethyl]-6,7-dimethoxy-2-methylquinazolin-4-amine]	> 20 µM	0.126 µM		
COc1cc2nc(C)nc(N[C@H](C)c3ccccc3)c2cc1OC [Example 206, 6,7-dimethoxy-2-methyl-N-[(1R)-1-phenylethyl]quinazolin-4-amine]	> 20 µM	1.75 µM		
COc1cc2nc(C)nc(NC(C)c3cccs3)c2cc1OC (stereo not drawn) [Example 207, 6,7-dimethoxy-2-methyl-N-[1-(thiophen-2-yl)ethyl]quinazolin-4-amine]	> 20 µM	12.3 µM		
COc1cc2nc(C)nc(NC(C)c3ccc(-c4ccccc4CN4CCC(O)C4)s3)c2cc1OC (stereo not drawn) [Example 210, 1-[2-(5-{1-[(6,7-dimethoxy-2-methylquinazolin-4-yl)amino]ethyl}thiophen-2-yl)benzyl]pyrrolidin-3-ol]	> 20 µM	0.1 µM		
COc1cc2nc(C)nc(NC(C)c3ccc(-c4ccccc4CN4CC[C@H](F)C4)s3)c2cc1OC (stereo partly drawn) [Example 211, N-{1-[5-(2-{[(3S)-3-fluoropyrrolidin-1-yl]methyl}phenyl)thiophen-2-yl]ethyl}-6,7-dimethoxy-2-methylquinazolin-4-amine]	> 20 µM	0.233 µM		
COc1cc2nc(C)nc(NC(C)c3ccc(-c4ccccc4)o3)c2cc1OC (stereo not drawn) [Example 213, 6,7-dimethoxy-2-methyl-N-[1-(5-phenylfuran-2-yl)ethyl]quinazolin-4-amine]	> 20 µM		42%	
COc1cc2nc(C)nc(NC(C)c3cc(Br)cc4c3OCC4)c2cc1OC (stereo not drawn) [Example 214, N-[1-(5-bromo-2,3-dihydro-1-benzofuran-7-yl)ethyl]-6,7-dimethoxy-2-methylquinazolin-4-amine]	> 20 µM	13.6 µM		
COc1cc2nc(C)nc(NC(C)c3cccc(Oc4ccccc4)c3)c2cc1OC (stereo not drawn) [Example 215, 6,7-dimethoxy-2-methyl-N-[1-(3-phenoxyphenyl)ethyl]quinazolin-4-amine]		2.95 µM		2.57 µM
COc1cc2nc(C)nc(NC(C)c3cccc(-c4nn[nH]n4)c3)c2cc1OC (stereo not drawn) [Example 216, 6,7-dimethoxy-2-methyl-N-{1-[3-(2H-tetrazol-5-yl)phenyl]ethyl}quinazolin-4-amine]	> 20 µM	16.1 µM		
COc1cc2nc(C)nc(NC(C)c3cccc4cccnc34)c2cc1OC (stereo not drawn) [Example 217, 6,7-dimethoxy-2-methyl-N-[1-(quinolin-8-yl)ethyl]quinazolin-4-amine]	> 20 µM		45%	
COc1cc2nc(C)nc(NC(C)c3ccc(-c4cnn(CCO)c4)s3)c2cc1OC (stereo not drawn) [Example 218, 2-[4-(5-{1-[(6,7-dimethoxy-2-methylquinazolin-4-yl)amino]ethyl}thiophen-2-yl)-1H-pyrazol-1-yl]ethanol]	> 20 µM	3.78 µM		
COc1cc2nc(C)nc(NC(C)c3ccc(-c4cnc5n4CCC5)s3)c2cc1OC (stereo not drawn) [Example 219, N-{1-[5-(6,7-dihydro-5H-pyrrolo[1,2-a]imidazol-3-yl)thiophen-2-yl]ethyl}-6,7-dimethoxy-2-methylquinazolin-4-amine]	> 20 µM	0.908 µM		
COc1cc2nc(C)nc(NC(C)c3ccc(-c4cnn(CCN5CCCC5)c4)s3)c2cc1OC (stereo not drawn) [Example 220, 6,7-dimethoxy-2-methyl-N-[1-(5-{1-[2-(pyrrolidin-1-yl)ethyl]-1H-pyrazol-4-yl}thiophen-2-yl)ethyl]quinazolin-4-amine]	> 20 µM	1.01 µM		
COc1cc2nc(C)nc(NC(C)c3ccc(-c4cnn(C5CCCC5)c4)s3)c2cc1OC (stereo not drawn) [Example 221, N-{1-[5-(1-cyclopentyl-1H-pyrazol-4-yl)thiophen-2-yl]ethyl}-6,7-dimethoxy-2-methylquinazolin-4-amine]	> 20 µM	4.81 µM		
